Data on four compounds can be found in patent US20080085494A1, “Dental Compositions Containing Oxirane Monomers” (priority 2004, published 2008).

Holding throughout (type): cell-based
What all share (settings): results to date

The subject of one data set is strain TA97A. As to the kind of experiment: Ames mutagenicity evaluation, strain TA97A. The protocol:
(§1) Ames mutagenicity evaluations of Compounds A-D were performed by the School of Pharmacy, University of Missouri at Kansas City (UMKC). Results to date have shown Compounds A, C, and D to be negative in strains TA100 and TA97A.
On the technique in general: The Ames test detects mutagens through reverse mutation in bacteria.

For another data set, the system named is strain TA100. Put plainly: Ames mutagenicity evaluation, strain TA100. The procedure:
as §1

The next data set concerns strain TA98. Put plainly: Ames mutagenicity evaluation, strain TA98.
The subject of the next data set is strain TA1535. Put plainly: Ames mutagenicity evaluation, strain TA1535.
A further data set relates to strain TA102. Put plainly: Ames mutagenicity evaluation, strain TA102.

With `c1ccc(OCCCCCCCCCCOc2ccccc2CC2CO2)c(CC2CO2)c1` (centres unmarked) [Compound A, 1,10-Bis[2-(2,3-epoxypropyl)phenoxy]decane], the Ames mutagenicity entry with strain TA97A and in the data set with strain TA100 was “negative” throughout.
In the case of `c1ccc(OCCCOc2ccccc2CC2CO2)c(CC2CO2)c1` (centres unmarked) [Compound B, 1,3-Bis[2-(2,3-epoxypropyl)phenoxy]propane], the Ames mutagenicity result in the data set with strain TA97A is “marginally positive”; in the data set on strain TA98, “negative”; in the data set on strain TA1535, “negative”; with strain TA100, “negative”; in the data set on strain TA102 it was “negative”.
On to `c1ccc(OCCCCCOc2ccccc2CC2CO2)c(CC2CO2)c1` (centres unmarked) [Compound C, 1,5-Bis[2-(2,3-epoxypropyl)phenoxy]pentane], for which the Ames mutagenicity result in the data set on strain TA97A and in the data set with strain TA100 was “negative” throughout.
Take `c1ccc(OCCCCCCOc2ccccc2CC2CO2)c(CC2CO2)c1` (centres unmarked) [Compound D, 1,6-Bis[2-(2,3-epoxypropyl)phenoxy]hexane]: the Ames mutagenicity entry in the data set with strain TA97A and in the data set with strain TA100 was “negative” throughout.
